Measured values as given in US9708318B2, “Bicyclic heterocycles as FGFR4 inhibitors” (Incyte Corporation, priority 2015, dated 2017).
Like-named read-outs stand apart in the source and are kept apart here.

Key:
FGFR2 = FGFR2 (Homo sapiens (Human), UniProt P21802); experiment: FGFR Enzymatic Assay (FRET peptide phosphorylation), FGFR2; type: biochemical
Protocol: (§1) The inhibitor potency of the exemplified compounds was measured in an enzyme assay that measures peptide phosphorylation using FRET measurements to detect product formation. Inhibitors were serially diluted in DMSO and a volume of 0.5 μL was transferred to the wells of a 384-well plate.
(§2) The enzymes were purchased from Millipore or Invitrogen.
(§3) GraphPad prism3 was used to analyze the data.

FGFR3 enzyme = FGFR3 enzyme (Homo sapiens (Human), UniProt P22607); experiment: FGFR Enzymatic Assay (FRET peptide phosphorylation), FGFR3; type: biochemical; details: for FGFR1/FGFR3 IC50 ratio / FGFR4/FGFR3 IC50 ratio: FGFR3 selectivity; for IC50: read-out: FGFR3 IC50
Protocol: as §1, §3

FGFR4 = FGFR4 (Homo sapiens (Human), UniProt P22455); experiment: FGFR Enzymatic Assay (FRET peptide phosphorylation), FGFR4; type: biochemical; details: for FGFR1/FGFR4 IC50 ratio / FGFR2/FGFR4 IC50 ratio / FGFR3/FGFR4 IC50 ratio: FGFR4 selectivity
Protocol: as §1, §2, §3

FGFR1 = FGFR1 (Homo sapiens (Human), UniProt P11362); experiment: FGFR Enzymatic Assay (FRET peptide phosphorylation), FGFR1
[1] = pre-incubated for 5 to 10 minutes
[2] = read-out: FGFR1 IC50, pre-incubated for 4 hours
[3] = FGFR1 IC50 (nM), pre-incubated for 5 to 10 minutes
[4] = FGFR1 IC50 (nM), pre-incubated for 4 hours

Sequence of FGFR3 enzyme (P22607 23-806): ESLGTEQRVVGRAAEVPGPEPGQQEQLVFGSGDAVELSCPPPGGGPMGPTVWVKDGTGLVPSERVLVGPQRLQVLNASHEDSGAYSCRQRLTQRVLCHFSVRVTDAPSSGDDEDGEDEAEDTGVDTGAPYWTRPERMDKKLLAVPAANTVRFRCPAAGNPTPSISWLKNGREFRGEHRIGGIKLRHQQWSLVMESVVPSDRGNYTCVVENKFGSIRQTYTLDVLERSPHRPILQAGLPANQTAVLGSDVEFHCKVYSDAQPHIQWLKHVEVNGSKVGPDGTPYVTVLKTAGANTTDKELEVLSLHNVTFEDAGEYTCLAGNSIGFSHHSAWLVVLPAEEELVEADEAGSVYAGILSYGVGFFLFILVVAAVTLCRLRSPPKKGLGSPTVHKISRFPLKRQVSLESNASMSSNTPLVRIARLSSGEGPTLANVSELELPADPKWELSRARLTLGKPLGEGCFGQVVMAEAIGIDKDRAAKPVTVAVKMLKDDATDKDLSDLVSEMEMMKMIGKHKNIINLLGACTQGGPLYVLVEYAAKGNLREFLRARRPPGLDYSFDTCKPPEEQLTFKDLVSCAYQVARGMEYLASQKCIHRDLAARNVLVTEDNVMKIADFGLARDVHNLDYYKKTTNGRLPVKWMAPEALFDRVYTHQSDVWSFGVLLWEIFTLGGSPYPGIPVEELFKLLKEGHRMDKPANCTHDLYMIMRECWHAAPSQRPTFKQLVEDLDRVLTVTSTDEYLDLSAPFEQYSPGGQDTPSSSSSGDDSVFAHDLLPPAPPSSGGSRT
Sequence of FGFR1 (P11362 22-822): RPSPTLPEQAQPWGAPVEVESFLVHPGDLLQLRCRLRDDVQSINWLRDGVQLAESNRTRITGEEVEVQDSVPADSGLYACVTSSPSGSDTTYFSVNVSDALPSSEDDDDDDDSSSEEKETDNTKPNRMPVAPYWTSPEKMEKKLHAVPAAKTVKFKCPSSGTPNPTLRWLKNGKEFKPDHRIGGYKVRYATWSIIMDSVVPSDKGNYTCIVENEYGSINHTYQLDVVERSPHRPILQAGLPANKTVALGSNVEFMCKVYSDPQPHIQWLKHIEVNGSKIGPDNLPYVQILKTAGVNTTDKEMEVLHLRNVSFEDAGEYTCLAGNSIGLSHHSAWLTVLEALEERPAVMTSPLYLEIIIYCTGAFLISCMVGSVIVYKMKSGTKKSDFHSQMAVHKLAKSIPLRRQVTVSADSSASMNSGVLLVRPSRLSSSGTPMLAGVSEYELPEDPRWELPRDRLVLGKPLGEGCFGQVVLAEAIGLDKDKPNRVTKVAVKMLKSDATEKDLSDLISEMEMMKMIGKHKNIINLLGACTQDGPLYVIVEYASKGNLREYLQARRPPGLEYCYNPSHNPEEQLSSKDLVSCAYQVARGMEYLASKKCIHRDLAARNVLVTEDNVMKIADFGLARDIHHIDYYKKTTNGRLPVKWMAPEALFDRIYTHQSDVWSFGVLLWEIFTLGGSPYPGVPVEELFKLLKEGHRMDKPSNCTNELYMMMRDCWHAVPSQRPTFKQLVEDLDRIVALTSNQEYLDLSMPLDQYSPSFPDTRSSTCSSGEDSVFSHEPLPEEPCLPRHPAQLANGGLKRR
Sequence of FGFR4 (P22455 22-802): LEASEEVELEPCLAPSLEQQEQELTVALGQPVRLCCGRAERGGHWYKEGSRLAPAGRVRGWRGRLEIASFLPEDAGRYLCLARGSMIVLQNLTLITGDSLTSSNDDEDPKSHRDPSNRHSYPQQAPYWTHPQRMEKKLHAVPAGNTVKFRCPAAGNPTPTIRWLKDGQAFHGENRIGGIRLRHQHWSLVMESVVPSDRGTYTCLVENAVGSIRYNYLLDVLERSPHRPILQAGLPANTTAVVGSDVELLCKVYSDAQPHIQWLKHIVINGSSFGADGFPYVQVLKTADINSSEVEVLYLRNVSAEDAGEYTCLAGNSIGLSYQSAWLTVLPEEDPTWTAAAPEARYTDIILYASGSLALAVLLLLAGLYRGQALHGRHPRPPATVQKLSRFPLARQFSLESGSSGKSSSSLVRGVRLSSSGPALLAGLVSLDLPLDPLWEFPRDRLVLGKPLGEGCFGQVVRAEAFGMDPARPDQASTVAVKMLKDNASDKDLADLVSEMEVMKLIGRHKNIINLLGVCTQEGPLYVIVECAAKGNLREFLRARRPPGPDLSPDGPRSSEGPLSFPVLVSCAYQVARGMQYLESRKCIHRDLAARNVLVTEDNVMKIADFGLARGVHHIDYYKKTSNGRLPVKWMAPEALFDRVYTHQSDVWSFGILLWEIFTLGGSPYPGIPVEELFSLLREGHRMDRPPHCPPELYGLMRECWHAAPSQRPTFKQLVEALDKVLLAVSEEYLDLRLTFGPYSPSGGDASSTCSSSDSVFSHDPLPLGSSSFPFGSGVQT
Sequence of FGFR2 (P21802 22-821): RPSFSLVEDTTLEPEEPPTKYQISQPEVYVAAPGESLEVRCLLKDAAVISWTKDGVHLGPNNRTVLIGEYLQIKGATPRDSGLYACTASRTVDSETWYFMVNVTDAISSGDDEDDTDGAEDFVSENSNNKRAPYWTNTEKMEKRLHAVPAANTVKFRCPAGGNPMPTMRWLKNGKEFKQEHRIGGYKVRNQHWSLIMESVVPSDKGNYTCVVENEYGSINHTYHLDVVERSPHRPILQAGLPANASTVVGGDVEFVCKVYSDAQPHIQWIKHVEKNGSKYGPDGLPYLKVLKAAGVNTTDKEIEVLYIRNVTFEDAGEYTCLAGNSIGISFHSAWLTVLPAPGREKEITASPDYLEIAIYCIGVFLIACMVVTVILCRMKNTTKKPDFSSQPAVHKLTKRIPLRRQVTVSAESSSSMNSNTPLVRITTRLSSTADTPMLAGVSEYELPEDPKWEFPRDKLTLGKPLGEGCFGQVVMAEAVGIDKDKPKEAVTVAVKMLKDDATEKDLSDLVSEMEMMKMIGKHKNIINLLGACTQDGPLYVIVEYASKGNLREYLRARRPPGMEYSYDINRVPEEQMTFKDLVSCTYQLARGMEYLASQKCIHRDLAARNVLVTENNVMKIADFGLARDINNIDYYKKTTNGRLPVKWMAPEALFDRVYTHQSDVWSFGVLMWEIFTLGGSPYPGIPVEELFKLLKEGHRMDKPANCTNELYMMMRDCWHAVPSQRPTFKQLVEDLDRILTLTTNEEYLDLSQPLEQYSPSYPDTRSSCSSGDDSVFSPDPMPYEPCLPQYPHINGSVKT

SMILES | IC50 (FGFR2; [1]) [nM] | IC50 (FGFR2; pre-incubated for 4 hours) [nM] | FGFR1/FGFR3 IC50 ratio (FGFR3 enzyme; pre-incubated for 4 hours) | FGFR4/FGFR3 IC50 ratio (FGFR3 enzyme; pre-incubated for 4 hours) | IC50 (FGFR3 enzyme; [1]) [nM] | IC50 (FGFR3 enzyme; pre-incubated for 4 hours) [nM] | IC50 (FGFR4; [1]) [nM] | IC50 (FGFR4; pre-incubated for 4 hours) [nM] | IC50 (FGFR1; read-out: FGFR1 IC50, pre-incubated for 5 to 10 minutes) [nM] | IC50 (FGFR1; [2]) [nM] | IC50 (FGFR1; [3]) [nM] | IC50 (FGFR1; [4]) [nM] | FGFR1/FGFR4 IC50 ratio (FGFR4; [1]) | FGFR2/FGFR4 IC50 ratio (FGFR4; [1]) | FGFR3/FGFR4 IC50 ratio (FGFR4; [1]) | FGFR1/FGFR4 IC50 ratio (FGFR4; pre-incubated for 4 hours) | FGFR2/FGFR4 IC50 ratio (FGFR4; pre-incubated for 4 hours) | FGFR3/FGFR4 IC50 ratio (FGFR4; pre-incubated for 4 hours)
COc1cc(OC)c(F)c(N2Cc3cnc(-c4cnn(C)c4)cc3C3(CC3)C2=O)c1F [Example 186, 2′-(2,6-difluoro-3,5-dimethoxyphenyl)-6′-(1-methyl-1H-pyrazol-4-yl)-1′,2′-dihydro-3′H-spiro[cyclopropane-1,4′-[2,7]naphthyridin]-3′-one] | < 10 | < 10 | >5 | >5 | < 10 | < 10 | < 10 | < 10 | < 10 | < 10 |  |  |  |  |  |  |  | 
COc1cc(OC)c(F)c(N2Cc3cnc(-c4ccc(C5(C#N)CCC5)nc4)cc3N(c3ccccn3)C2=O)c1F [Example 137, 1-(5-(3-(2,6-difluoro-3,5-dimethoxyphenyl)-2-oxo-1-(pyridin-2-yl)-1,2,3,4-tetrahydropyrido[4,3-d]pyrimidin-7-yl)pyridin-2-yl)cyclobutanecarbonitrile] | 10 to 30 |  |  |  | 10 to 30 |  | 30 to 200 |  |  |  | 30 to 200 |  |  |  |  |  |  | 
COc1cc(OC)c(F)c(N2Cc3cnc(-c4cn(C)nc4C)cc3N(C3(C#N)CC3)C2=O)c1F [Example 91, 1-(3-(2,6-difluoro-3,5-dimethoxyphenyl)-7-(1,3-dimethyl-1H-pyrazol-4-yl)-2-oxo-3,4-dihydropyrido[4,3-d]pyrimidin-1(2H)-yl)cyclopropanecarbonitrile] |  | < 10 | >5 | >5 |  | < 10 |  | 30 to 200 |  |  |  | 30 to 200 |  |  |  |  |  | 
COc1cc(OC)c(F)c(N2Cc3cnc(-c4cn(C)nc4C)cc3N(Cc3ccc4c(c3)OCCO4)C2=O)c1F [Example 38, 3-(2,6-difluoro-3,5-dimethoxyphenyl)-1-((2,3-dihydrobenzo[b][1,4]dioxin-6-yl)methyl)-7-(1,3-dimethyl-1H-pyrazol-4-yl)-3,4-dihydropyrido[4,3-d]pyrimidin-2(1H)-one] |  | 10 to 30 | >5 | >5 |  | < 10 |  | 30 to 200 |  |  |  | 30 to 200 |  |  |  |  |  | 
COc1cc(OC)c(F)c(N2Cc3cnc(-c4cn(C)nc4C)cc3N(Cc3cnn(C4CC4)c3)C2=O)c1F [Example 124, 1-((1-cyclopropyl-1H-pyrazol-4-yl)methyl)-3-(2,6-difluoro-3,5-dimethoxyphenyl)-7-(1,3-dimethyl-1H-pyrazol-4-yl)-3,4-dihydropyrido[4,3-d]pyrimidin-2(1H)-one] |  | < 10 | >10 | >10 |  | < 10 |  | < 10 |  | < 10 |  |  |  |  |  |  |  | 
CCN1C(=O)N(c2c(F)c(OC)cc(OC)c2F)Cc2cnc(-c3ccc(C4(C#N)CC4)cc3)cc21 [Example 183, 1-(4-(3-(2,6-difluoro-3,5-dimethoxyphenyl)-1-ethyl-2-oxo-1,2,3,4-tetrahydropyrido[4,3-d]pyrimidin-7-yl)phenyl)cyclopropanecarbonitrile] |  | < 10 | >3 | >10 |  | < 10 |  | 30 to 200 |  |  |  | 10 to 30 |  |  |  |  |  | 
COc1cc(OC)c(F)c(N2Cc3cnc(-c4cn(C)nc4C)cc3N(c3ccc(C#N)cn3)C2=O)c1F [Example 79, 6-(3-(2,6-difluoro-3,5-dimethoxyphenyl)-7-(1,3-dimethyl-1H-pyrazol-4-yl)-2-oxo-3,4-dihydropyrido[4,3-d]pyrimidin-1(2H)-yl)nicotinonitrile] |  | < 10 | >5 | >3 |  | < 10 |  | 30 to 200 |  |  |  | 30 to 200 |  |  |  |  |  | 
CCN1C(=O)N(c2c(F)c(OC)cc(OC)c2F)Cc2cnc(-c3ccc(C4(C#N)CCC4)cc3)cc21 [Example 181, 1-(4-(3-(2,6-difluoro-3,5-dimethoxyphenyl)-1-ethyl-2-oxo-1,2,3,4-tetrahydropyrido[4,3-d]pyrimidin-7-yl)phenyl)cyclobutanecarbonitrile] |  | < 10 | >5 | >10 |  | < 10 |  | 30 to 200 |  |  |  | 30 to 200 |  |  |  |  |  | 
COc1cc(OC)c(F)c(N2Cc3cnc(-c4cn(C)nc4C)cc3N(c3cccc(F)c3)C2=O)c1F [Example 99, 3-(2,6-difluoro-3,5-dimethoxyphenyl)-7-(1,3-dimethyl-1H-pyrazol-4-yl)-1-(3-fluorophenyl)-3,4-dihydropyrido[4,3-d]pyrimidin-2(1H)-one] |  | < 10 | >5 | >5 |  | < 10 |  | 30 to 200 |  |  |  | 30 to 200 |  |  |  |  |  | 
COc1cc(OC)c(F)c(N2Cc3cnc(-c4cncc(F)c4)cc3C3(CC3)C2=O)c1F [Example 5, 2′-(2,6-difluoro-3,5-dimethoxyphenyl)-6′-(5-fluoropyridin-3-yl)-1′H-spiro[cyclopropane-1,4′-[2,7]naphthyridin]-3′(2′H)-one] | 10 to 30 | 10 to 30 | >3 |  | 10 to 30 | 10 to 30 | < 10 | < 10 |  |  | 30 to 200 | 30 to 200 | >10 | >5 | >4 | >10 | >5 | >1
COc1cc(OC)c(F)c(N2Cc3cnc(-c4nn(CC5CCOCC5)cc4C#N)cc3C3(CC3)C2=O)c1F [Example 173, 3-(2′-(2,6-difluoro-3,5-dimethoxyphenyl)-3′-oxo-2′,3′-dihydro-1′H-spiro[cyclopropane-1,4′-[2,7]naphthyridine]-6′-yl)-1-((tetrahydro-2H-pyran-4-yl)methyl)-1H-pyrazole-4-carbonitrile] |  | > 200 |  |  |  | > 200 |  | 10 to 30 |  | > 200 |  |  |  |  |  | >100 | >100 | >50
COc1cc(OC)c(F)c(N2Cc3cnc(-c4cn(C)nc4C)cc3N(Cc3cc(C(C)C)on3)C2=O)c1F [Example 93, 3-(2,6-difluoro-3,5-dimethoxyphenyl)-7-(1,3-dimethyl-1H-pyrazol-4-yl)-1-((5-isopropylisoxazol-3-yl)methyl)-3,4-dihydropyrido[4,3-d]pyrimidin-2(1H)-one] |  | < 10 | >5 | >5 |  | < 10 |  | 30 to 200 |  |  |  | 30 to 200 |  |  |  |  |  | 
COc1cc(OC)c(F)c(N2Cc3cnc(-c4cn(C)nc4C)cc3N(c3ccc(C(=O)N(C)C)cc3)C2=O)c1F [Example 113, 4-(3-(2,6-difluoro-3,5-dimethoxyphenyl)-7-(1,3-dimethyl-1H-pyrazol-4-yl)-2-oxo-3,4-dihydropyrido[4,3-d]pyrimidin-1(2H)-yl)-N,N-dimethylbenzamide] |  | < 10 | >3 | >5 |  | 10 to 30 |  | 30 to 200 |  |  |  | 30 to 200 |  |  |  |  |  | 
COc1cc(OC)c(F)c(N2Cc3cnc(-c4cn(C)nc4C)cc3N(C3CC3)C2=O)c1F [Example 83, 1-cyclopropyl-3-(2,6-difluoro-3,5-dimethoxyphenyl)-7-(1,3-dimethyl-1H-pyrazol-4-yl)-3,4-dihydropyrido[4,3-d]pyrimidin-2(1H)-one] |  | 30 to 200 | >5 | >5 |  | 10 to 30 |  | > 200 |  |  |  | 30 to 200 |  |  |  |  |  | 
CCc1cnc(N2C(=O)N(c3c(F)c(OC)cc(OC)c3F)Cc3cnc(-c4cn(C)nc4C)cc32)cn1 [Example 106, 3-(2,6-difluoro-3,5-dimethoxyphenyl)-7-(1,3-dimethyl-1H-pyrazol-4-yl)-1-(5-ethylpyrazin-2-yl)-3,4-dihydropyrido[4,3-d]pyrimidin-2(1H)-one] |  | 30 to 200 | >3 | >5 |  | 10 to 30 |  | 30 to 200 |  |  |  | 30 to 200 |  |  |  |  |  | 
COc1cc(OC)c(F)c(N2Cc3cnc(-c4cn(CC(=O)N5CCOCC5)nc4C)cc3C3(CC3)C2=O)c1F [Example 159, 2′-(2,6-difluoro-3,5-dimethoxyphenyl)-6′-(3-methyl-1-(2-morpholino-2-oxoethyl)-1H-pyrazol-4-yl)-1′H-spiro[cyclopropane-1,4′-[2,7]naphthyridin]-3′(2′H)-one] |  | 10 to 30 | >5 | >3 |  | 10 to 30 |  | 30 to 200 |  |  |  | 30 to 200 |  |  |  |  |  | 
COc1cnc(N2C(=O)N(c3c(F)c(OC)cc(OC)c3F)Cc3cnc(-c4cn(C)nc4C)cc32)cn1 [Example 112, 3-(2,6-difluoro-3,5-dimethoxyphenyl)-7-(1,3-dimethyl-1H-pyrazol-4-yl)-1-(5-methoxypyrazin-2-yl)-3,4-dihydropyrido[4,3-d]pyrimidin-2(1H)-one] |  | < 10 | >3 | >5 |  | < 10 |  | 30 to 200 |  |  |  | 30 to 200 |  |  |  |  |  | 
